ChEMBL document CHEMBL1201862, “PubChem BioAssay data set” (2004)
Where “and” joins values, the source holds several entries; their conditions need not be identical. Equal values may be shown once. Calls of active or inactive are those of the source.

Tests used:
Assay type in all cases: functional
[1] = SAR analysis of small molecule activators of Apaf-1 using a LZ-Caspase-9/Caspase-3 Fluorescent Selectivity assay - Set 2.; settings: read-out: EC50_Mean
[2] = target: DNA dC->dU-editing enzyme APOBEC-3G (Homo sapiens, UniProt Q9HC16); assay: Dose Response confirmation of small molecule APOBEC3G DNA Deaminase Inhibitors via a fluorescence-based single-stranded DNA deaminase assay. [Related pubchem assays (depositor defined):AID493012, AID493028]
[3] = target: T1, Apoptotic protease-activating factor 1 (Homo sapiens, UniProt O14727); assay: SAR analysis of small molecule Activators of Apaf-1 in a Fluorescent assay - set 2.; settings: read-out: EC50_Mean
T1 sequence (O14727 whole entry): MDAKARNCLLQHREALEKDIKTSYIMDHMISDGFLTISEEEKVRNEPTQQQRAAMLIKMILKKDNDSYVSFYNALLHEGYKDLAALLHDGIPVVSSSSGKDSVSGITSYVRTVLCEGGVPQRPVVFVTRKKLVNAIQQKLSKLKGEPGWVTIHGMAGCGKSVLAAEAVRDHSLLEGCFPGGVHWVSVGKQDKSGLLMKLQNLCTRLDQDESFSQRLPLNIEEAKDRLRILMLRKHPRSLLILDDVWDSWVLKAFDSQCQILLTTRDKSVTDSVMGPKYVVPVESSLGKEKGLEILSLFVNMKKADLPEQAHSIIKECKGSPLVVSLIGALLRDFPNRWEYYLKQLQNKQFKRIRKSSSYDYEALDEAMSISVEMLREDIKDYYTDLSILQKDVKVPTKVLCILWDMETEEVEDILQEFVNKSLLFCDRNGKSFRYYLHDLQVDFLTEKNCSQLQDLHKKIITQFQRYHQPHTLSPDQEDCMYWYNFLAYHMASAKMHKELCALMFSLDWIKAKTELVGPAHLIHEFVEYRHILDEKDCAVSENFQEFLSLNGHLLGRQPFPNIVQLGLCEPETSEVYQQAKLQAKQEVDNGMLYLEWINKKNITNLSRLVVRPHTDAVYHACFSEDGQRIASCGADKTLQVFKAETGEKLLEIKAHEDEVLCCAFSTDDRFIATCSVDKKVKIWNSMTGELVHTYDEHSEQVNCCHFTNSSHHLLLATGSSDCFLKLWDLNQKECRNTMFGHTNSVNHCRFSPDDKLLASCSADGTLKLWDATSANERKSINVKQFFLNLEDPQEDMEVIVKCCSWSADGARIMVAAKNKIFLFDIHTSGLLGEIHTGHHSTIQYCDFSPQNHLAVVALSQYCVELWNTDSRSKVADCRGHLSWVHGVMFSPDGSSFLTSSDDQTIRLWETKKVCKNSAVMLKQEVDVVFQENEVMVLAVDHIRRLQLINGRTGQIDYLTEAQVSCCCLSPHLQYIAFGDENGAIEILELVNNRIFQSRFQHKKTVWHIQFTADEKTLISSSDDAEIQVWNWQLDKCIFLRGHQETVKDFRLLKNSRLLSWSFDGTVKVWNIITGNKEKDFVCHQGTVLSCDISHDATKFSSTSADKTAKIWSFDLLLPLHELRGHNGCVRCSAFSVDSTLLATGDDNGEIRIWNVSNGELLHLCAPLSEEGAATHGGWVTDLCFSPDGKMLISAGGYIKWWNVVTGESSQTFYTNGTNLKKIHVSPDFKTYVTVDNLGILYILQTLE

[4] = target: T1, Apoptotic protease-activating factor 1; assay: SAR analysis of small molecule Activators of Apaf-1 in a Fluorescent assay.; settings: read-out: EC50_Mean
[5] = target: Multidrug resistance protein CDR2 (Candida albicans (strain SC5314 / ATCC MYA-2876) (Yeast), UniProt P78595); assay: CaCDR2 efflux pump inhibitors in yeast, dose response, S. cerevisiae AD1-8u, singleplex, Cherry Pick1 hits (AID 588604)
[6] = target: Protein disulfide-isomerase (Homo sapiens, UniProt P07237); assay: PDI inhibitors, insulin aggregation turbidity, dose response, biochemical, absorbance, cherry-picked samples (AID 602350)
[7] = target: T2, Neuropeptides B/W receptor type 1 (Homo sapiens, UniProt P48145); assay: GPR7 antagonist potency, late-stage follow-up, cell-based, fluorescence, dose response, set 5 (AID 588566)
T2 sequence (P48145 whole entry): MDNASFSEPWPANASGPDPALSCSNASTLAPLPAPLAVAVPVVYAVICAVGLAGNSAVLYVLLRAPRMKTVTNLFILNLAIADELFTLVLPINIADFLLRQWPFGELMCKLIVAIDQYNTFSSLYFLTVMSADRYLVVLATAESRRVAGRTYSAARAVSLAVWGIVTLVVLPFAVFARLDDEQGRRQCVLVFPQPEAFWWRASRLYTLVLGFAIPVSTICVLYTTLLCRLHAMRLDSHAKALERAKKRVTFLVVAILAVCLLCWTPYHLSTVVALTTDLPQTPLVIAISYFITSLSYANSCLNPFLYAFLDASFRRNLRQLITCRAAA

[8] = target: Melanin-concentrating hormone receptor 1 (Homo sapiens, UniProt Q99705); assay: Late-stage fluorescence-based counterscreen for antagonists of the G-protein coupled receptor 7 (GPR7): cell-based dose response assay to identify antagonists of the melanin-concentrating hormone receptor 1 (MCHR1) Set 5.
[9] = nonselective inhibitors of cellular cAMP signaling, dose response, counter-screen for MC4R biased antagonist project, cell-based, TR-FRET cAMP detection (AID 602305);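 note: U2OS cells stimulated with forskolin near its EC80 as the cAMP inducer; potency is for inhibition of forskolin-stimulated cAMP signaling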
Melanocortin receptor 4 = Melanocortin receptor 4 (Homo sapiens, UniProt P32245); assay: MC4R antagonist potency on cAMP, dose response, cell-based, TR-FRET, biased antagonists (AID 602298);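 note: antagonist potency against agonist-stimulated cAMP production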
Sequence of Melanocortin receptor 4 (P32245 whole entry): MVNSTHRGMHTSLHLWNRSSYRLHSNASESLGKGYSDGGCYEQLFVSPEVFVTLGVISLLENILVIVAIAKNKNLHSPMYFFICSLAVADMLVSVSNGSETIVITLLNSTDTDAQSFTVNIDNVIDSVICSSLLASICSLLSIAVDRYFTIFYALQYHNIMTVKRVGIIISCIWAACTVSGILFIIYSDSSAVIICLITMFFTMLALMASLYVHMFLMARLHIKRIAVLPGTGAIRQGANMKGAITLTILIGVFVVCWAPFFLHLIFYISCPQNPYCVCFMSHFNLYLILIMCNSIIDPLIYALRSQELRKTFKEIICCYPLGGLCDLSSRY

Sequence of Melanin-concentrating hormone receptor 1 (Q99705 whole entry): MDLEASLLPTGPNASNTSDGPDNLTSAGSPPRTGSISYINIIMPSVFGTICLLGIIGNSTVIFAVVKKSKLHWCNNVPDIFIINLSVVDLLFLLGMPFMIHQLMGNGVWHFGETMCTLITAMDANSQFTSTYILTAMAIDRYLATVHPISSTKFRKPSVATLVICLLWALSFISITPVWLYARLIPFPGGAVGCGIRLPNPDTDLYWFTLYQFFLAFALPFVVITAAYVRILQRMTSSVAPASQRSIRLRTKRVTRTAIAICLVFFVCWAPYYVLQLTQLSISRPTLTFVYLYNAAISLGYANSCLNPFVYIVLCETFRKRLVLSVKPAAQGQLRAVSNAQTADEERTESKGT
Sequence of Multidrug resistance protein CDR2 (P78595 whole entry): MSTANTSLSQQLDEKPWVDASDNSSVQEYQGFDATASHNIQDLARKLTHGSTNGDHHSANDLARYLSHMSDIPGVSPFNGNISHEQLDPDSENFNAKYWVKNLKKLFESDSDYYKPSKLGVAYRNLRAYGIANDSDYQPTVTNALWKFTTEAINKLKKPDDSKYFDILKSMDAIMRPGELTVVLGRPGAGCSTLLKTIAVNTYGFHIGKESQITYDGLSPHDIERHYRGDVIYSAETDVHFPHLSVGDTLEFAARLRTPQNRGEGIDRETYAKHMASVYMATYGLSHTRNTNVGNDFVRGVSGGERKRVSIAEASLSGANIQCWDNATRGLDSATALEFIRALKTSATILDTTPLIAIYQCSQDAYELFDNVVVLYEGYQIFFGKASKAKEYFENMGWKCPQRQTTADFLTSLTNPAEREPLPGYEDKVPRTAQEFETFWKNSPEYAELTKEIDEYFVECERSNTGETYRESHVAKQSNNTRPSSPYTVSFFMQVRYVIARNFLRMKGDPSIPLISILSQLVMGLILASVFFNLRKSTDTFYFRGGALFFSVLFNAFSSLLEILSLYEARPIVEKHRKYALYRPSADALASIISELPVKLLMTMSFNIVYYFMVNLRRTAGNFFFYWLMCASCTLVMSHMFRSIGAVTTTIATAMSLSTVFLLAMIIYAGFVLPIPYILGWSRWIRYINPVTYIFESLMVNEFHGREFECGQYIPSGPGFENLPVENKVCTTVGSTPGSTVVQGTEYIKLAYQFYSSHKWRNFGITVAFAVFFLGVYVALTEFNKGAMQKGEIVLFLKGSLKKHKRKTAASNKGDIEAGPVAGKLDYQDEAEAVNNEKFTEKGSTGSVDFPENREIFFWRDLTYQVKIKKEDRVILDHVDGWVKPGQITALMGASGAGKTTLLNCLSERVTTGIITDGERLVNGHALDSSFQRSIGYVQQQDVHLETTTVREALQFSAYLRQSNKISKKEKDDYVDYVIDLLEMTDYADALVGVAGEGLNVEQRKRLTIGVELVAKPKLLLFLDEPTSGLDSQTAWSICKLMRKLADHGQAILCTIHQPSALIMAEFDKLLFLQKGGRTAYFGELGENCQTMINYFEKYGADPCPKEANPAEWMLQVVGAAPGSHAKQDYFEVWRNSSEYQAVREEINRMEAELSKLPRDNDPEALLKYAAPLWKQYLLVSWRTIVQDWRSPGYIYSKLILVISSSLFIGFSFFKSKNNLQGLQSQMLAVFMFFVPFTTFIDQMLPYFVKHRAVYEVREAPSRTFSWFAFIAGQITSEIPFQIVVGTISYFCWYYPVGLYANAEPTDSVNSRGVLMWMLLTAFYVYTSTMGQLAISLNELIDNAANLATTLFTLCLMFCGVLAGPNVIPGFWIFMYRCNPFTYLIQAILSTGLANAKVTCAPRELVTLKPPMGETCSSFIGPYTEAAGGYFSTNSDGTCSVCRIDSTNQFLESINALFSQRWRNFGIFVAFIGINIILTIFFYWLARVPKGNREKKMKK
Sequence of Protein disulfide-isomerase (P07237 whole entry): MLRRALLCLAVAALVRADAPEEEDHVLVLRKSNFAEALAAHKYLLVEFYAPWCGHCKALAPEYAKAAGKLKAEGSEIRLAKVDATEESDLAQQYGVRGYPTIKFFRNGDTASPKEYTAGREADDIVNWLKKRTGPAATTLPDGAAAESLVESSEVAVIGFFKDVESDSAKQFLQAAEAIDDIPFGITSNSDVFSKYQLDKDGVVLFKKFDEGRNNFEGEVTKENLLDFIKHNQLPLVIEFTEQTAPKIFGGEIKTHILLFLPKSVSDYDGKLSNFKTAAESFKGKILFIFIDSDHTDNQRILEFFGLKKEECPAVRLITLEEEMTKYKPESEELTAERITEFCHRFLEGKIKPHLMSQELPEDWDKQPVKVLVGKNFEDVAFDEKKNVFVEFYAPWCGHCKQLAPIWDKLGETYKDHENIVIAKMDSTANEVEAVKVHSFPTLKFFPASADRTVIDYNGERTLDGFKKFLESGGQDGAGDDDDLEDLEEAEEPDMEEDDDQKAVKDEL
Sequence of DNA dC->dU-editing enzyme APOBEC-3G (Q9HC16 whole entry): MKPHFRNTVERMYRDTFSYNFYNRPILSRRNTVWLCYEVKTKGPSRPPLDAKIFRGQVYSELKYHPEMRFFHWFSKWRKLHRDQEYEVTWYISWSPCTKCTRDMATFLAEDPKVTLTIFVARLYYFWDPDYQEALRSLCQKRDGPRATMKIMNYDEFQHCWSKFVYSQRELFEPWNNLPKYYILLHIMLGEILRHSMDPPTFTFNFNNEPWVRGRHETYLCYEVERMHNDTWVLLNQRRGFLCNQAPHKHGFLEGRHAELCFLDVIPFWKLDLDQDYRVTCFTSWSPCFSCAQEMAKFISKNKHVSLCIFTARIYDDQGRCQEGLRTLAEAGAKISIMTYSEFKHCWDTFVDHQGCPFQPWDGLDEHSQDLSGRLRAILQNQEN

Compound: O=C(O)C1CC(c2ccc(F)cc2)=NO1 (stereo not given)
- EC50 [1]: > 100 µM (inactive) and > 99 µM (inactive)
- IC50 [2]: 10.9 µM (active)
- EC50 [3]: 6.39 µM (active) and 3.86 µM (active) and > 99 µM (inactive)
- EC50 [4]: 6.69 µM (active)

Compound: COc1ccc2nccc(/C=C/c3ccnc4ccc(OC)cc34)c2c1
- EC50 [5]: 14 µM (active)

Compound: C[C@H](CO)N1C[C@H](C)[C@@H](CN(C)S(=O)(=O)c2ccc(F)cc2)Oc2ccc(NC(=O)Cc3cn(C)c4ccccc34)cc2C1=O
- AC50 [6]: 19.5 µM (active)

Compound: CCOc1ccc(Sc2cnn(Cc3cccc4ccccc34)c(=O)c2Cl)cc1
- IC50 [7]: 5 µM (active)
- IC50 [8]: > 20 µM (inactive)

Compound: Cn1ccs/c1=N\C(=O)c1ccc(S(C)(=O)=O)c([N+](=O)[O-])c1
- IC50 [9]: > 64.6 µM (inactive)
- IC50 (Melanocortin receptor 4): > 64.6 µM (inactive)
